{
  "source": "patent US11945822B2",
  "about": "“Pyrazolo-triazine and/or pyrazolo-pxrimidine derivatives as selective inhibitor of cyclin dependent kinase” (QURIENT CO., LTD., priority 2018, dated 2024)",
  "key": {"[1]": {"target": "T1, CDK1/Cyclin B (Homo sapiens, UniProt P06493)", "T1 construct": "purchased Invitrogen PR4768C", "T1 sequence (P06493 whole entry)": "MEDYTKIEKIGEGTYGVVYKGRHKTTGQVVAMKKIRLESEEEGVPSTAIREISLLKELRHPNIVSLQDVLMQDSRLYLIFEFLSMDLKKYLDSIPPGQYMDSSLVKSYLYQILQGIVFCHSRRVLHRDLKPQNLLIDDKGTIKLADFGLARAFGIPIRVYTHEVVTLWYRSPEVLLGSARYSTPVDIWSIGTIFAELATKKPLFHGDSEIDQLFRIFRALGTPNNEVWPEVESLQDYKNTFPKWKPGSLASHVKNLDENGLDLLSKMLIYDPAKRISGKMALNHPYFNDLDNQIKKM", "T1 sequence (P14635 whole entry partner)": "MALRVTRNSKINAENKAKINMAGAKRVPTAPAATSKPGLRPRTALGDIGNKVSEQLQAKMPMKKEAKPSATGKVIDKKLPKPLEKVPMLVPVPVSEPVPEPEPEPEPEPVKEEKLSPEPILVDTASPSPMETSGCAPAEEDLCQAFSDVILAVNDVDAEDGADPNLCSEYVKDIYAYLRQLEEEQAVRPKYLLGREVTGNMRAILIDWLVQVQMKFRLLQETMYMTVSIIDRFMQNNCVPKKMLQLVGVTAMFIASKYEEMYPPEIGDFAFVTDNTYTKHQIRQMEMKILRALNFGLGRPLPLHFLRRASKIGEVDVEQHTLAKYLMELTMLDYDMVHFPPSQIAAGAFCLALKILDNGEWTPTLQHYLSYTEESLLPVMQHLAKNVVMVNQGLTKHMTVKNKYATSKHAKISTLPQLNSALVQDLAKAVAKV", "test": "Enzymatic assay for CDK1 (FRET based LANCE Ultra kinase assay)", "assay_type": "biochemical", "settings": "read-out: CDK1 enzymatic activity (IC50 range)", "method": "(§1) Enzymatic Binding Assay Protocol for CDK1, CDK2, CDK5 and CDK7\n(§2) Inhibition activity of the respective compound on CDK kinase under Km value of ATP was tested in FRET based The LANCE® Ultra kinase assay (Perkin Elmer), which uses a ULight™-labeled peptide substrate and an appropriate Europium-labeled anti-phospho-antibody. Test compounds were made with DMSO solutions, and then 4-fold serial dilutions for 8 doses were prepared using automated liquid handler (POD810, LABCYTE) and 80 nL/well of diluted compound solutions were added into the 384-well plates (Greiner, Cat #784075). And then 68 nM of ULight-MBP peptide (Perkin Elmer, Cat #TRF0109-M) and 5 ul/well of ATP (Sigma, Cat #A7699) were added to the plate. After 1 min centrifugation at 1000 rpm, Purified CDKs/Cyclin complex were added following concentrations respectively. 24 uM for CDK1/Cyclin B (Invitrogen, Cat #PR4768C), 22 uM for CDK2/Cyclin A (Invitrogen, Cat #PV6290), 10 uM for CDK5/p25 (Invitrogen, Cat #PR8543B) and […] for CDK7/Cyclin H/MNAT1 (Invitrogen, Cat #PR6749B) were added to the each corresponding plate for CDK1, CDK2, CDK5 and CDK7. Incubate at 23° C. for 60 min and then Eu-labeled anti-phospho-Myelin Basic Protein (PE, Cat #TRF0201-M) and EDTA (Invitrogen, Cat #15575038) mixture in Lance Detection Buffer (Perkin Elmer, Cat #CR97100) was added in each well. After additional incubation at 23° C. for 60 min, test articles were measured the fluorescence using Envision leader (Perkin Elmer, USA) [Laser as excitation light; […] as the first and the second emission filter]. Data was analyzed using XL Fit software."}, "[2]": {"target": "T2, CDK2/Cyclin A (Homo sapiens, UniProt P24941)", "T2 construct": "purchased Invitrogen PV6290", "test": "Enzymatic assay for CDK2 (FRET based LANCE Ultra kinase assay)", "assay_type": "biochemical", "settings": "read-out: CDK2 enzymatic activity (IC50 range)", "method": "as §1, §2"}, "[3]": {"target": "T3, CDK5/p25 (Homo sapiens, UniProt Q00535)", "T3 construct": "purchased Invitrogen PR8543B", "T3 sequence (Q00535 whole entry)": "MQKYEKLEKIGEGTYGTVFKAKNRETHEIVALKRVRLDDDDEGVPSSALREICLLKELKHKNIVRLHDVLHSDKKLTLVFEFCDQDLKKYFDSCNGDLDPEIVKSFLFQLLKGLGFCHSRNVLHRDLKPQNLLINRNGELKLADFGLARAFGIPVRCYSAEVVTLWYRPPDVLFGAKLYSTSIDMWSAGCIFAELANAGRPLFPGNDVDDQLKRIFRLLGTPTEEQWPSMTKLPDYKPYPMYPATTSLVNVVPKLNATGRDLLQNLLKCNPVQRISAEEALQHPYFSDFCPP", "T3 sequence (Q15078 99-307 partner limits assumed)": "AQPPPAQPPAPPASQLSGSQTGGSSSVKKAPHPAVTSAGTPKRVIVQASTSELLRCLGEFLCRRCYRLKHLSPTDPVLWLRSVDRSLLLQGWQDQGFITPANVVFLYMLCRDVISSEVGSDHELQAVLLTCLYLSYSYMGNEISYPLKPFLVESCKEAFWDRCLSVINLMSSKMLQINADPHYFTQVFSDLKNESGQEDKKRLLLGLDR", "test": "Enzymatic assay for CDK5 (FRET based LANCE Ultra kinase assay)", "assay_type": "biochemical", "settings": "read-out: CDK5 enzymatic activity (IC50 range)", "method": "as §1, §2"}, "[4]": {"target": "T4, CDK7/Cyclin H/MNAT1 (Homo sapiens, UniProt P50613)", "T4 construct": "purchased Invitrogen PR6749B", "T4 sequence (P50613 whole entry)": "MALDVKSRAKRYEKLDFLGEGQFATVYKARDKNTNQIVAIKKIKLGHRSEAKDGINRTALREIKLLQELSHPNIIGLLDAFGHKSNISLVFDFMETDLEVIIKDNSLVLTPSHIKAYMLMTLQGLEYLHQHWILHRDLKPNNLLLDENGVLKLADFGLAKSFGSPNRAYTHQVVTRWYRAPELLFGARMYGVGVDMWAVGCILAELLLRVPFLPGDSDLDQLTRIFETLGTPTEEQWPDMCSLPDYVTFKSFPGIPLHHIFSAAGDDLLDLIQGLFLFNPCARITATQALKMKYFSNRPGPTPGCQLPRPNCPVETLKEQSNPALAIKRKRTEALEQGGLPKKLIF", "T4 sequence (P51946 whole entry partner)": "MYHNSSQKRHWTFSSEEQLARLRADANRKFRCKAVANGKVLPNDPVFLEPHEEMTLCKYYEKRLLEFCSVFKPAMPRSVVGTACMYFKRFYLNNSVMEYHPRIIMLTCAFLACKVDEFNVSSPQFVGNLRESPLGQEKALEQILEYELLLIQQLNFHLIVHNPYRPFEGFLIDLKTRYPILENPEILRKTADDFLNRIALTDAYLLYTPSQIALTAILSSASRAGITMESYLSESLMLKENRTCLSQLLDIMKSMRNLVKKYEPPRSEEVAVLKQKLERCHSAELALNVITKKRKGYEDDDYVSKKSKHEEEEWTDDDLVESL", "T4 sequence (P51948 whole entry partner)": "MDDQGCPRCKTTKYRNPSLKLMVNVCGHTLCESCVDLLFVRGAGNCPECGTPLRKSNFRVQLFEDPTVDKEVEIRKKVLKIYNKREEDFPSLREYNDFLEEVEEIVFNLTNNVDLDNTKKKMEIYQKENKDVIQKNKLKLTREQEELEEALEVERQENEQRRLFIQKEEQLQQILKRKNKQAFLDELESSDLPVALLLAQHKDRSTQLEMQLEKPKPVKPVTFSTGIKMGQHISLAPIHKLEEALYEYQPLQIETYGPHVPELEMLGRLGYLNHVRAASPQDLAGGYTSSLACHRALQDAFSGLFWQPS", "test": "Enzymatic assay for CDK7 (FRET based LANCE Ultra kinase assay)", "assay_type": "biochemical", "settings": "for IC50: read-out: CDK7 enzymatic activity (IC50 range)", "method": "as §1\nInhibition activity of the respective compound on CDK kinase under Km value of ATP was tested in FRET based The LANCE® Ultra kinase assay (Perkin Elmer), which uses a ULight™-labeled peptide substrate and an appropriate Europium-labeled anti-phospho-antibody. […] After 1 min centrifugation at 1000 rpm, Purified CDKs/Cyclin complex were added following concentrations respectively. […] Data was analyzed using XL Fit software."}, "[5]": {"test_system": "H460", "test": "Cellular H460 viability assay (CellTiter-Glo, 72 hours)", "assay_type": "cell-based", "settings": "Homo sapiens, NCI-H460", "method": "All cell lines were routinely tested for mycoplasma.\nThe effect of the CDK7 inhibitor to inhibit the growth of target cancer cells was evaluated through the 72 hours time period of viability assay. Briefly, the candidate cell line ware plated in 96 well plate at the following density of cells respectively. […] DMSO solvent without compound served as a control and final DMSO concentration less than 0.1%. After 72 hours of incubation at 37° C., 5% CO2 incubator, cells were analyzed for the viability using the CellTiter-Glo Luminescent Cell Viability Assay (Promega, Cat #G7570). All viability assays were performed in duplicate and Luminescence was read using an Envision (Perkin Elmer, USA). Data was analyzed using XLfit software."}},
  "data": [
    {"smiles": "Cc1ccc(CNc2nc(N3CCC(N)CC3)nc3c(C(C)C)cnn23)cc1-n1cccn1", "note": "[Compound 65]", "values": [
      {"measurement": "IC50", "setting": "[1]", "result": "> 1", "unit": "µM"},
      {"measurement": "IC50", "setting": "[2]", "result": "> 1", "unit": "µM"},
      {"measurement": "IC50", "setting": "[3]", "result": "0.1 to 1", "unit": "µM"},
      {"measurement": "CDK1/CDK7: Selectivity of CDK7 inhibition over CDK1 inhibition", "setting": "[4]", "result": "B (B=less than 200 fold, but greater than 20 fold)"},
      {"measurement": "CDK2/CDK7: Selectivity of CDK7 inhibition over CDK2 inhibition", "setting": "[4]", "result": "B (B=less than 200 fold, but greater than 20 fold)"},
      {"measurement": "CDK5/CDK7: Selectivity of CDK7 inhibition over CDK5 inhibition", "setting": "[4]", "result": "C (C=less than 20 fold)"},
      {"measurement": "IC50", "setting": "[4]", "result": "< 0.1", "unit": "µM"},
      {"measurement": "IC50", "setting": "[5]", "result": "1 to 10", "unit": "µM"}
    ]},
    {"smiles": "CC(C)c1cnn2c(NCc3c[nH]c4ccccc34)nc(N3CCC(N)CC3)nc12", "note": "[Compound 28]", "values": [
      {"measurement": "IC50", "setting": "[1]", "result": "> 1", "unit": "µM"},
      {"measurement": "IC50", "setting": "[2]", "result": "0.1 to 1", "unit": "µM"},
      {"measurement": "IC50", "setting": "[3]", "result": "0.1 to 1", "unit": "µM"},
      {"measurement": "CDK1/CDK7: Selectivity of CDK7 inhibition over CDK1 inhibition", "setting": "[4]", "result": "B (B=less than 200 fold, but greater than 20 fold)"},
      {"measurement": "CDK2/CDK7: Selectivity of CDK7 inhibition over CDK2 inhibition", "setting": "[4]", "result": "B (B=less than 200 fold, but greater than 20 fold)"},
      {"measurement": "CDK5/CDK7: Selectivity of CDK7 inhibition over CDK5 inhibition", "setting": "[4]", "result": "C (C=less than 20 fold)"},
      {"measurement": "IC50", "setting": "[4]", "result": "< 0.1", "unit": "µM"}
    ]},
    {"smiles": "CC(C)c1cnn2c(NCc3ccccc3-n3cccn3)nc(C3CCNCC3)nc12", "note": "[Compound 23]", "values": [
      {"measurement": "IC50", "setting": "[5]", "result": "< 1", "unit": "µM"}
    ]},
    {"smiles": "CC(C)c1cnn2c(NCc3cccc4cnn(C)c34)nc(N3CCC(N)CC3)nc12", "note": "[Compound 10]", "values": [
      {"measurement": "IC50", "setting": "[1]", "result": "0.1 to 1", "unit": "µM"},
      {"measurement": "IC50", "setting": "[2]", "result": "0.1 to 1", "unit": "µM"},
      {"measurement": "IC50", "setting": "[3]", "result": "< 0.1", "unit": "µM"},
      {"measurement": "CDK1/CDK7: Selectivity of CDK7 inhibition over CDK1 inhibition", "setting": "[4]", "result": "B (B=less than 200 fold, but greater than 20 fold)"},
      {"measurement": "CDK2/CDK7: Selectivity of CDK7 inhibition over CDK2 inhibition", "setting": "[4]", "result": "B (B=less than 200 fold, but greater than 20 fold)"},
      {"measurement": "CDK5/CDK7: Selectivity of CDK7 inhibition over CDK5 inhibition", "setting": "[4]", "result": "C (C=less than 20 fold)"},
      {"measurement": "IC50", "setting": "[4]", "result": "< 0.1", "unit": "µM"},
      {"measurement": "IC50", "setting": "[5]", "result": "< 1", "unit": "µM"}
    ]},
    {"smiles": "CC(C)c1cnn2c(NCc3ccccc3Br)nc(N3CCC(N)CC3)nc12", "note": "[Compound 22]", "values": [
      {"measurement": "IC50", "setting": "[5]", "result": "< 1", "unit": "µM"}
    ]},
    {"smiles": "CC(C)c1cnn2c(NCc3ccccc3-c3cc4cccc(NC(=O)N(C)C)c4[nH]3)nc(N3CCC(N)CC3)nc12", "note": "[Compound 149]", "values": [
      {"measurement": "IC50", "setting": "[1]", "result": "0.1 to 1", "unit": "µM"},
      {"measurement": "IC50", "setting": "[2]", "result": "< 0.1", "unit": "µM"},
      {"measurement": "IC50", "setting": "[3]", "result": "< 0.1", "unit": "µM"},
      {"measurement": "CDK1/CDK7: Selectivity of CDK7 inhibition over CDK1 inhibition", "setting": "[4]", "result": "B (B=less than 200 fold, but greater than 20 fold)"},
      {"measurement": "CDK2/CDK7: Selectivity of CDK7 inhibition over CDK2 inhibition", "setting": "[4]", "result": "B (B=less than 200 fold, but greater than 20 fold)"},
      {"measurement": "CDK5/CDK7: Selectivity of CDK7 inhibition over CDK5 inhibition", "setting": "[4]", "result": "C (C=less than 20 fold)"},
      {"measurement": "IC50", "setting": "[4]", "result": "< 0.1", "unit": "µM"},
      {"measurement": "IC50", "setting": "[5]", "result": "< 1", "unit": "µM"}
    ]},
    {"smiles": "CC(C)c1cnn2c(NCc3cccc4ncn(C)c34)nc(N3CCC(N)CC3)nc12", "note": "[Compound 16]", "values": [
      {"measurement": "IC50", "setting": "[1]", "result": "0.1 to 1", "unit": "µM"},
      {"measurement": "IC50", "setting": "[2]", "result": "0.1 to 1", "unit": "µM"},
      {"measurement": "IC50", "setting": "[3]", "result": "< 0.1", "unit": "µM"},
      {"measurement": "CDK1/CDK7: Selectivity of CDK7 inhibition over CDK1 inhibition", "setting": "[4]", "result": "B (B=less than 200 fold, but greater than 20 fold)"},
      {"measurement": "CDK2/CDK7: Selectivity of CDK7 inhibition over CDK2 inhibition", "setting": "[4]", "result": "B (B=less than 200 fold, but greater than 20 fold)"},
      {"measurement": "CDK5/CDK7: Selectivity of CDK7 inhibition over CDK5 inhibition", "setting": "[4]", "result": "C (C=less than 20 fold)"},
      {"measurement": "IC50", "setting": "[4]", "result": "< 0.1", "unit": "µM"},
      {"measurement": "IC50", "setting": "[5]", "result": "< 1", "unit": "µM"}
    ]},
    {"smiles": "CC(C)c1cnn2c(NCc3ccccc3-n3cccn3)nc(C(=O)NC3CCNC3)nc12", "note": "(racemic) [Compound 8]", "values": [
      {"measurement": "IC50", "setting": "[1]", "result": "> 1", "unit": "µM"},
      {"measurement": "IC50", "setting": "[2]", "result": "> 1", "unit": "µM"},
      {"measurement": "IC50", "setting": "[3]", "result": "> 1", "unit": "µM"},
      {"measurement": "CDK1/CDK7: Selectivity of CDK7 inhibition over CDK1 inhibition", "setting": "[4]", "result": "B (B=less than 200 fold, but greater than 20 fold)"},
      {"measurement": "CDK2/CDK7: Selectivity of CDK7 inhibition over CDK2 inhibition", "setting": "[4]", "result": "B (B=less than 200 fold, but greater than 20 fold)"},
      {"measurement": "CDK5/CDK7: Selectivity of CDK7 inhibition over CDK5 inhibition", "setting": "[4]", "result": "C (C=less than 20 fold)"},
      {"measurement": "IC50", "setting": "[4]", "result": "0.1 to 1", "unit": "µM"},
      {"measurement": "IC50", "setting": "[5]", "result": "> 10", "unit": "µM"}
    ]},
    {"smiles": "NC1CCN(c2nc(NCc3ccccc3-n3cccn3)n3ncc(Cl)c3n2)CC1", "note": "[Compound 29]", "values": [
      {"measurement": "IC50", "setting": "[5]", "result": "1 to 10", "unit": "µM"}
    ]}
  ]
}
